Laboratory results as given in ChEMBL document CHEMBL3797113, “Structural requirements of acylated Gly-l-Ala-d-Glu analogs for activation of the innate immune receptor NOD2” (Eur J Med Chem, 2016).
pEC50: −log10 of the molar value. Calls of active or inactive are those of the source. No cut-off for these calls is given here.

Key:
[1] = Cytotoxicity against NOD2 expressing HEK-Blue cells assessed as residual metabolic activity at 20 uM after 18 hrs by MTS assay relative to control; assay type: ADME, cell-based; settings: human, read-out: Activity
[2] = target: T1, Nucleotide-binding oligomerization domain-containing protein 2 (Homo sapiens, UniProt Q9HC29); assay: Agonist activity at NOD2 receptor (unknown origin) expressed in HEK-Blue cells assessed as NF-kappaB transcriptional activity at 20 uM after 18 hrs by secreted embryonic alkaline phosphatase reporter gene assay relative to untreated control; assay type: cell-based
T1 sequence (Q9HC29 whole entry, the tested form may be a part): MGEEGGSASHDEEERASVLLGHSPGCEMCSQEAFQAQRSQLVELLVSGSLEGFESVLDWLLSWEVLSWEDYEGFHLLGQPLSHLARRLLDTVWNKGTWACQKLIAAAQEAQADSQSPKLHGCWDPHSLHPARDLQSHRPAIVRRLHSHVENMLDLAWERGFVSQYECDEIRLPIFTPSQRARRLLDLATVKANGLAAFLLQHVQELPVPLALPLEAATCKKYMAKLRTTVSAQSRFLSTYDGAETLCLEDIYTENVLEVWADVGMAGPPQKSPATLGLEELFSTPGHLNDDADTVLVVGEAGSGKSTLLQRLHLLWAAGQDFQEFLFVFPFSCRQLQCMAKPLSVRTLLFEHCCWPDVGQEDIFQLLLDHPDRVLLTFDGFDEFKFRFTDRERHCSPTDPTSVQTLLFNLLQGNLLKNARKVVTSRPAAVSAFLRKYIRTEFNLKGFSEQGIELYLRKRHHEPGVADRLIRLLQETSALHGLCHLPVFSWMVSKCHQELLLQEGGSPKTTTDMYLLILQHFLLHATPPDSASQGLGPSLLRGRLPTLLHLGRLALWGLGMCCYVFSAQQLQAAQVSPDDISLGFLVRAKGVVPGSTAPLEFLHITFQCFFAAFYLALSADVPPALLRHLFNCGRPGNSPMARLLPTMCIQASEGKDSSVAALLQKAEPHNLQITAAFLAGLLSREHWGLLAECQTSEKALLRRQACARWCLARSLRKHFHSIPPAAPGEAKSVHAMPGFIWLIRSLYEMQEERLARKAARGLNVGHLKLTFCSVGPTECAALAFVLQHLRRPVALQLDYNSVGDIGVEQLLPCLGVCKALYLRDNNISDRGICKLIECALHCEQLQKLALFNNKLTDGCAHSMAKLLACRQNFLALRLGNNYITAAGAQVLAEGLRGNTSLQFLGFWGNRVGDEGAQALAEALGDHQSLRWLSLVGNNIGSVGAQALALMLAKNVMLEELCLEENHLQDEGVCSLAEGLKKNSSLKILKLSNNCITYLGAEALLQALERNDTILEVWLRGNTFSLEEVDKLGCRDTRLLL

[3] = target: T2, Nucleotide-binding oligomerization domain-containing protein 1 (Homo sapiens) (UniProt Q9Y239); assay: Agonist activity at NOD1 receptor (unknown origin) expressed in HEK-Blue cells assessed as NF-kappaB transcriptional activity at 20 uM after 18 hrs by secreted embryonic alkaline phosphatase reporter gene assay; assay type: cell-based
T2 sequence (whole entry): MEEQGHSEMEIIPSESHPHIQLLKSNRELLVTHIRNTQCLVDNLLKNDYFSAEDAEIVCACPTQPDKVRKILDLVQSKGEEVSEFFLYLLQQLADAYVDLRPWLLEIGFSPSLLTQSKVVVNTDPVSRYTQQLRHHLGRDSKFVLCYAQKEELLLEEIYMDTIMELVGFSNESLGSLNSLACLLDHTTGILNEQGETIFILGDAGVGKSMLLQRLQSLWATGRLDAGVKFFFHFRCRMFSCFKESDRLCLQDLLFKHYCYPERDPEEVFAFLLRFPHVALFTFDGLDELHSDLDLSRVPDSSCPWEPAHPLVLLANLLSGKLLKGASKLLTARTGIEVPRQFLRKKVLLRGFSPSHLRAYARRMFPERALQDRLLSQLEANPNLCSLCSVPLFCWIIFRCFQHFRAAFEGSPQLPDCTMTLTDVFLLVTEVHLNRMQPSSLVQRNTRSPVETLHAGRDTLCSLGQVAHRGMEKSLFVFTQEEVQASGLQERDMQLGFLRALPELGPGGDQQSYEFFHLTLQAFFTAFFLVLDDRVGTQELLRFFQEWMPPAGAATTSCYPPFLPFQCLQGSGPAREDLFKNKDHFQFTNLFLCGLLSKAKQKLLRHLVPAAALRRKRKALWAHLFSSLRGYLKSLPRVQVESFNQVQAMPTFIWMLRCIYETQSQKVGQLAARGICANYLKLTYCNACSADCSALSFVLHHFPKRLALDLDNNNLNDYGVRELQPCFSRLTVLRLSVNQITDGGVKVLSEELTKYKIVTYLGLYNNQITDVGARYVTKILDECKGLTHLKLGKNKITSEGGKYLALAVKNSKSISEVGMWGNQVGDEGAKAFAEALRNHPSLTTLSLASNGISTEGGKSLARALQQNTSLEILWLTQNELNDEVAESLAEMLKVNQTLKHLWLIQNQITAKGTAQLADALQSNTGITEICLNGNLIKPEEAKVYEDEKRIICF

[4] = target: T1, Nucleotide-binding oligomerization domain-containing protein 2; assay: Agonist activity at NOD2 receptor (unknown origin) expressed in HEK-Blue cells assessed as NF-kappaB transcriptional activity after 18 hrs by secreted embryonic alkaline phosphatase reporter gene assay; assay type: cell-based

SMILES	Activity [2]	Activity [3]	fold change (FC) [2]	Activity [4]	pEC50 [4]	viability at 18 h, 20 µM [1] [%]
Cc1nc(CC[C@@H](NC(=O)[C@H](C)NC(=O)CNC(=O)c2cc3ccccc3[nH]2)c2noc(C)n2)no1	inactive	inactive	–	–	–	≥ 80
CCOC(=O)CC[C@@H](NC(=O)[C@H](C)NC(=O)CNC(=O)c1ccc[nH]1)C(=O)OCC	–	inactive	1.08	–	–	≥ 80
CCOC(=O)CC[C@@H](NC(=O)[C@H](C)NC(=O)CNC(=O)C1Cc2ccccc2N1)C(=O)OCC (some centres not stated)	–	inactive	3.17	–	–	≥ 80
C[C@H](NC(=O)CNC(=O)c1cc2ccccc2[nH]1)C(=O)N[C@H](CCC(=O)O)C(=O)O	–	inactive	2.1	–	–	≥ 80
CCOC(=O)CC[C@@H](NC(=O)[C@H](C)NC(=O)CNC(=O)/C=C/c1ccccc1)C(=O)OCC	–	inactive	7.37	–	–	≥ 80
CCOC(=O)CC[C@@H](NC(=O)[C@H](C)NC(=O)CNC(=O)C(=O)Nc1ccccc1)C(=O)OCC	–	inactive	1.15	–	–	≥ 80
CCOC(=O)CC[C@@H](NC(=O)[C@H](C)NC(=O)CNC(=O)C1Cc2ccccc2N1C(=O)OC(C)(C)C)C(=O)OCC (some centres not stated)	–	inactive	2.58	–	–	≥ 80
CC(=O)N[C@H]1C(O)O[C@H](CO)[C@@H](O)[C@@H]1O[C@H](C)C(=O)N[C@@H](C)C(=O)N[C@H](CCC(=O)O)C(N)=O (some centres not stated) [MURAMYL DIPEPTIDE]	–	inactive	11.5	Dose-dependent effect	7.34	–
C[C@H](NC(=O)CNC(=O)c1cc2ccccc2[nH]1)C(=O)N[C@H](CCC(=O)OCc1ccccc1)C(=O)OCc1ccccc1	–	inactive	8.82	–	–	≥ 80

Further lines, with some results ahead:

Activity [2]	Activity [3]	fold change (FC) [2]	Activity [4]	pEC50 [4]	SMILES	viability at 18 h, 20 µM [1] [%]
–	inactive	4.58	–	–	CCOC(=O)CC[C@@H](NC(=O)[C@H](C)NC(=O)CNC(=O)c1cc2cc(Br)ccc2[nH]1)C(=O)OCC	≥ 80
–	inactive	2.95	–	–	CCOC(=O)CC[C@@H](NC(=O)[C@H](C)NC(=O)CNC(=O)c1cc2c(-c3ccccc3)cccc2[nH]1)C(=O)OCC	≥ 80
–	inactive	10.4	–	–	CCOC(=O)CC[C@@H](NC(=O)[C@H](C)NC(=O)CNC(=O)c1cc2cc(-c3ccccc3)ccc2[nH]1)C(=O)OCC	≥ 80
–	inactive	5.2	–	–	CCOC(=O)CC[C@@H](NC(=O)[C@H](C)NC(=O)CNC(=O)c1cc2ccccc2[nH]1)C(=O)OCC	–
–	inactive	11.2	Dose-dependent effect	5.54	CCOC(=O)CC[C@@H](NC(=O)[C@H](C)NC(=O)CNC(=O)c1cc2ccc(-c3ccccc3)cc2[nH]1)C(=O)OCC	≥ 80
–	inactive	6.51	–	–	CCOC(=O)CC[C@@H](NC(=O)[C@H](C)NC(=O)CNC(=O)c1cc2cccc(-c3ccccc3)c2[nH]1)C(=O)OCC	≥ 80
–	inactive	2.8	–	–	CCOC(=O)CC[C@@H](NC(=O)[C@H](C)NC(=O)CNC(=O)c1cc2ccccc2n1Cc1ccc(F)cc1)C(=O)OCC	≥ 80
–	inactive	2.14	–	–	CCOC(=O)CC[C@@H](NC(=O)[C@H](C)NC(=O)CNC(=O)c1cc2ccccc2n1C)C(=O)OCC	≥ 80
–	inactive	3.02	–	–	CCOC(=O)CC[C@@H](NC(=O)[C@H](C)NC(=O)CNC(=O)c1cc2cc(F)ccc2[nH]1)C(=O)OCC	≥ 80
–	inactive	1.22	–	–	CCOC(=O)CC[C@@H](NC(=O)[C@H](C)NC(=O)CNC(=O)c1c[nH]c2ccccc12)C(=O)OCC	≥ 80
–	inactive	1.41	–	–	CCOC(=O)CC[C@@H](NC(=O)[C@H](C)NC(=O)CCNC(=O)c1cc2ccccc2[nH]1)C(=O)OCC	≥ 80
